The text below walks through data of article PMC13194723, “Structural basis for pH-responsive amino acid transport via SLC7A4” (Nature Communications, 2026).

The target of assay [1] is T1, human SLC7A4 triple mutant (Tri-M) (Homo sapiens, UniProt O43246, L336S/L394M/V332S).
T1 construct: C-terminal FLAG tag
T1 sequence (O43246 1-635 V332S/L336S/L394M): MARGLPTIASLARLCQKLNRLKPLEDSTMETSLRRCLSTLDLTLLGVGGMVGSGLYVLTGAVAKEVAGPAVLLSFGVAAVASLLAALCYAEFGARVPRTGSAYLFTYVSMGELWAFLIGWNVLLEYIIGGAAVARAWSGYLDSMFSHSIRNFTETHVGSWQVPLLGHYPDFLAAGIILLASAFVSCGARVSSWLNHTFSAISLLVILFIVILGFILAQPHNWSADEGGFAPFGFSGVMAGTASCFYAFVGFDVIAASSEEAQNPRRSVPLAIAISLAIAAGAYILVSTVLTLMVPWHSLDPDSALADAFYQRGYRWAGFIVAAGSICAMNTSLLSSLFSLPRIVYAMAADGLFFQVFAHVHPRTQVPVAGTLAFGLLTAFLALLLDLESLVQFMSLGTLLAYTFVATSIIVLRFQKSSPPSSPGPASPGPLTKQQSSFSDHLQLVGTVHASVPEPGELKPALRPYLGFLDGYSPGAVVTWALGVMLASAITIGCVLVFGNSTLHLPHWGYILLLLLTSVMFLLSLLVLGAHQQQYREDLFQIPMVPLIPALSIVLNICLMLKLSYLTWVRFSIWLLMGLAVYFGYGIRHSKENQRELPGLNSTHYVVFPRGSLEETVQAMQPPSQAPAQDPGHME
The assay is described as follows: […] L-Leu uptake and competition in HCT116 SLC7A5 KO cells. It counts as cell-based.

For assay [2], the target named is T2, human SLC7A4 (Homo sapiens, UniProt O43246).
T2 construct: C-terminal FLAG tag
T2 sequence (O43246 1-635): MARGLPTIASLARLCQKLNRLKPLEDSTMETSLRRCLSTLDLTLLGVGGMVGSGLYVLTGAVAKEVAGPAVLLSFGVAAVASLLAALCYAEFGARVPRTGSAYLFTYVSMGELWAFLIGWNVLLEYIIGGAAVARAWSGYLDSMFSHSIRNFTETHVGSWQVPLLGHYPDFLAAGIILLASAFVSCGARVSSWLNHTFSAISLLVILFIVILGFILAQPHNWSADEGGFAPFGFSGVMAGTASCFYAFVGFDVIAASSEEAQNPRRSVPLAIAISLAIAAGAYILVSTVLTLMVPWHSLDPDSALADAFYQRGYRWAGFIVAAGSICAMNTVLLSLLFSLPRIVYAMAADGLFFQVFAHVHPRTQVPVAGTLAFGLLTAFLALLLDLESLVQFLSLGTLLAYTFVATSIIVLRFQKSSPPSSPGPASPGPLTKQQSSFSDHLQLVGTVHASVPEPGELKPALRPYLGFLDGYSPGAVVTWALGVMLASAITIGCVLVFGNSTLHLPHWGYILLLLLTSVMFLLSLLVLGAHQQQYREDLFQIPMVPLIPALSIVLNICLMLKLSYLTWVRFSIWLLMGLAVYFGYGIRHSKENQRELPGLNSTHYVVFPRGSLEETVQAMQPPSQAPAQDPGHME
In words: […] L-Leu uptake competition in HCT116 SLC7A5 KO cells overexpressing SLC7A4; also nanoDSF (~[…] °C) and proteoliposome uptake. Format: cell-based. (DSF heats the sample and reads unfolding from a dye or from intrinsic fluorescence.)

Assay [3] addresses T1, human SLC7A4 triple mutant (Tri-M). In words: competition of […] L-Leu uptake in HCT116 SLC7A5 KO cells. Format: cell-based.
The target in assay [4] is T2, human SLC7A4. The assay is described as follows: competition of […] L-Leu uptake in HCT116 SLC7A5 KO cells; also recognised in nanoDSF; not transported. It counts as cell-based.
Assay [5] concerns the target T3, Arabidopsis thaliana CAT4 (SLC7A4/CAT4) (Arabidopsis thaliana (Mouse-ear cress)., UniProt Q8W4K3).
T3 construct: Cationic amino acid transporter 4 (CAT4) of Arabidopsis thaliana, UniProt Q8W4K3; codon-optimised synthetic gene in pDDGFP-Leu2D; C-terminal TEV site (ENLYFQG/S), yeGFP and His12 removed by TEV protease, so part of the TEV site stays on the C-terminus; also called AtCAT4; Arabidopsis thaliana SLC7A4; source: S. cerevisiae BJ5460, purified in LMNG (Ni-NTA, TEV cleavage, HisTrap flow-through, SEC); …
The assay is described as follows: BLI; Octet Red 384; who was immobilised is not stated. As to conditions: both partners purified. For orientation: BLI is a label-free optical method that tracks binding on a fibre tip over time.

T3 sequence (Q8W4K3 whole entry): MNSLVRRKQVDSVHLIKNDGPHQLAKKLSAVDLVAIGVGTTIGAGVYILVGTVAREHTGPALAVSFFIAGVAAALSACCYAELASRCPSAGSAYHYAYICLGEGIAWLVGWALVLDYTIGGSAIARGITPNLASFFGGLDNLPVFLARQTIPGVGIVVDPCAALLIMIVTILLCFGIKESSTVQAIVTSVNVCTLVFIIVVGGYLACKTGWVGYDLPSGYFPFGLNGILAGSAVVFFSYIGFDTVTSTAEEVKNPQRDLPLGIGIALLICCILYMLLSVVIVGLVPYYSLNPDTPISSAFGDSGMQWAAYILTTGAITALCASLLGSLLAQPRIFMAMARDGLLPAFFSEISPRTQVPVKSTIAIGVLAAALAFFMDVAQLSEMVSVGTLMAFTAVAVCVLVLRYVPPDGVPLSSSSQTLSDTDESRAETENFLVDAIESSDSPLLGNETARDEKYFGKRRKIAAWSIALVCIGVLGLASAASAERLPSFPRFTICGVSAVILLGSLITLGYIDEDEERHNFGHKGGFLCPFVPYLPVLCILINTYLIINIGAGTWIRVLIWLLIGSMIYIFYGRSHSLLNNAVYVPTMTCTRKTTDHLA

As to `CC(C)C[C@H](N)C(=O)O` [L-Leucine], the IC50 (commonly the concentration at which inhibition is half-maximal) in assay [1] came out at 65 µM; in assay [2] it was 24 ± 5 µM. For `N=C(N)NCCC[C@H](N)C(=O)O` [L-Arginine], the 50% inhibitory concentration (IC50) in assay [3] is 48.6 ± 2.3 µM; in assay [4] it was 680 ± 19 µM.

B1: Sybody B5 (VHH)
VHH: QVQLVESGGGLVQAGGSLRLSCAASGFPVNMYWMHWYRQAPGKEREWVAAIQSYGQWTAYADSVKGRFTISRDNAKNTVYLQMNSLKPEDTAVYYCAVGVGGYYLGQGTQVTVS
notes: Synthetic nanobody selected from the loop sybody library against AtCAT4; also called SybB5; source: E. coli MC1061, periplasmic extraction, purified (Ni-NTA); not shown: Myc, C-terminal, kept; His6, C-terminal, kept
For B1, the Kd (usually the concentration at which binding is half-saturated) in assay [5] is 0.0573 ± 0.0105 µM.
